Assay results reported in ChEMBL document CHEMBL4043256, “Discovery of N-substituted 7-azaindoles as PIM1 kinase inhibitors - Part I” (Bioorg Med Chem Lett, 2017).

How the values were obtained:
[1] = target: Serine/threonine-protein kinase pim-2 (Homo sapiens, UniProt Q9P1W9); assay: Inhibition of PIM2 (unknown origin) assessed as reduction in full length human BAD phosphorylation at Ser112 residues by TR-FRET assay
[2] = target: Serine/threonine-protein kinase pim-3 (Homo sapiens, UniProt Q86V86); assay: Inhibition of PIM3 (unknown origin) assessed as reduction in full length human BAD phosphorylation at Ser112 residues by TR-FRET assay
[3] = target: Cell division cycle 7-related protein kinase (Homo sapiens, UniProt O00311); assay: Inhibition of CDC7 (unknown origin)
[4] = target: Cyclin-dependent kinase 9 (Homo sapiens, UniProt P50750)
Cyclin-dependent kinase 9, sequence (P50750 whole entry): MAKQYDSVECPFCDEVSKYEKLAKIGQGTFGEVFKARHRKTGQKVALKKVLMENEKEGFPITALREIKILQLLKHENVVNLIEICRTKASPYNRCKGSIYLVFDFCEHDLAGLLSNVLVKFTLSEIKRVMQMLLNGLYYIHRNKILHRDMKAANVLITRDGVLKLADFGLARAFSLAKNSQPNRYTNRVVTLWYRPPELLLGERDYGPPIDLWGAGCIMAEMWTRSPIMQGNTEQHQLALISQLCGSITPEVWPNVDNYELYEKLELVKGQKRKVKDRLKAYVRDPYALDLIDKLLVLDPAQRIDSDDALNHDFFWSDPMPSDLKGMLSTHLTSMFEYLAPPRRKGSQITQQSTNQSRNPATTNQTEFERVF

Serine/threonine-protein kinase pim-2, sequence (Q9P1W9 whole entry): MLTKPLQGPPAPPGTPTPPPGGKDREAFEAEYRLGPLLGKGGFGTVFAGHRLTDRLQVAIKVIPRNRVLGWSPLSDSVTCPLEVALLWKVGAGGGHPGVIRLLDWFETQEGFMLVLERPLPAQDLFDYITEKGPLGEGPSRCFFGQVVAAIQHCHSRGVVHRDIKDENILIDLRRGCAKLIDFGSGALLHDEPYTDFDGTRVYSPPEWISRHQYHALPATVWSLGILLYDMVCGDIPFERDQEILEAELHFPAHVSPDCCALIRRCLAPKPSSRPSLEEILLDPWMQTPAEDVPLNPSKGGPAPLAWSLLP
Cell division cycle 7-related protein kinase, sequence (O00311 whole entry): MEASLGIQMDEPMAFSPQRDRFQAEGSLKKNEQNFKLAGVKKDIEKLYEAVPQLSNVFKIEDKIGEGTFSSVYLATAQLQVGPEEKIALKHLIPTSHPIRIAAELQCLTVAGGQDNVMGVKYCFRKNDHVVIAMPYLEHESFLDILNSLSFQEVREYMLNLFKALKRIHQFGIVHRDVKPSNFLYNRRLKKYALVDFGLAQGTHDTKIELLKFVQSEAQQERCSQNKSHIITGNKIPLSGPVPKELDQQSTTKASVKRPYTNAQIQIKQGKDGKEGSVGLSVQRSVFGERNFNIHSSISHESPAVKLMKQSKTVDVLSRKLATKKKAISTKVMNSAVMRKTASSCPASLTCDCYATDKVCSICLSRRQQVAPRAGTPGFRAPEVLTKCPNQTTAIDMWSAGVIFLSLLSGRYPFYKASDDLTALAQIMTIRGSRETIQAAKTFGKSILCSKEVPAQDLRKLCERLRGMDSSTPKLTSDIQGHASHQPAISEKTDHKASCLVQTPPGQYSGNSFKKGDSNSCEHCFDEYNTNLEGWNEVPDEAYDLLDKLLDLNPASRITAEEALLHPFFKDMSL

Row | SMILES | IC50 [1] | IC50 [2] | IC50 [3] | IC50 [4]
1 | Cc1c(-c2ccc(N3CCNCC3)cc2)n(C)c2nc(C(N)=O)cc(Cl)c12 | 1270 nM | 290 nM | – | –
2 | Clc1ccnc2[nH]c(-c3ccc(N4CCNCC4)cc3)cc12 | – | – | 40 nM | 20 nM
3 | CN1CCN(c2ccc(-c3cc4c(Cl)cc(C(N)=O)nc4n3C)cc2)CC1 | > 30000 nM | 400 nM | – | –

More lines, now with the values ahead:

Row | IC50 [1] | IC50 [2] | IC50 [3] | IC50 [4] | SMILES
4 | 872 nM | 492 nM | – | – | CN1CCC(NC(=O)c2ccc(-c3c(-c4ccc(N5CCN(C)CC5)cc4)n(C)c4nccc(Cl)c34)cc2)CC1
5 | 13800 nM | 10600 nM | – | – | Cn1c(-c2ccc(N3CCNCC3)cc2)c(-c2ccc(CO)cc2)c2c(Cl)ccnc21
6 | 3300 nM | 1400 nM | – | – | CN(C)Cc1ccc(-c2c(-c3ccc(N4CCN(C)CC4)cc3)n(C)c3nccc(Cl)c23)cc1
7 | > 30000 nM | – | – | – | CN(C)Cc1ccc(-c2c(-c3ccc(N4CCNCC4)cc3)n(C)c3nc(C(N)=O)cc(Cl)c23)cc1
